Data: patent US6706839B1, “Chemical partitioning agents and methods of using same” (University of Pittsburgh, priority 1999, dated 2004)

Assay: Solubility of stilbene precipiton isomers in organic solvents (qualitative observations)
Assay type: physicochemical
Details: for solubility in THF: reaction solvent of the Z to E isomerization
Description: When a solution of (Z)-stilbene (51Z or 52Z) in THF was heated to reflux at 80-90° C. in the presence of Ph2S2 (0.2 equiv) for several hours, the Z to E isomerization occurred smoothly. The reaction was followed by ^1H NMR (either vinylic protons or NMe2 (51Z), OMe (52Z)). As the reaction proceeded, solid precipitate came out of the solution. […] The E-isomer was obtained pure in a 44% (51E) and 79% (52E) yield, respectively without any contamination of either Z-isomer or Ph2S2. […] In high-boiling solvents such as toluene and p-dioxane, the isomerization was faster than in THF and the reaction was completed in less than 3 h (Table 32). A second catalytic method for isomerization/precipitation employs iodine and a radical initiator, for example dibenzoylperoxide. Irradiation of the cis-alkenes in the presence of 1-50 mol % iodine and 0.1-25 mol % dibenzoylperoxide affords clean isomerization of the cis to trans alkene.
(2-Naphthalenylmethyl)triphenylphosphonium bromide ((a) Tinnemans, A. H. A.; Laarhoven, W. H. J. Chem. Soc. Perkin. Trans. 2, 1976, 1104-1111. (b) Zelikovich, L.; Hoffman, R. E.; Ayalon, A.; Rabinovitz, M. J. Chem. Soc. Perkin. Trans. 2, 1992, 1785-1792) was treated with NaH in DMF to generate a corresponding ylide. A solution of 4-methoxy-1-naphthaldehyde in DMF was added and stirred at 35-50° C. for 2 h at to give 1,2-naphthylstilbene 53 in 51% yield (53Z:53E=1:1.2). 6-Methoxy-2-naphthaldehyde ((a) Harvey, R. G.; Cortez, C.; Sawyer, T. W.; DiGiovanni, J.; J. Med. Chem. 1988, 31, 1308-1312. (b) Harvey, R. G.; Cortez, C. Tetrahedron, 1997, 53, 7101-7118) was prepared by formylation (Beringer, F. M.; Nathan, R. A. J. Org. Chem. 1969, 34, 685-689) of 6-methoxy-2-bromonaphthalene in 53% yield. When (2-naphthalenylmethyl)-triphenylphosphonium bromide was reacted with 6-methoxy-2-naphthaldehyde in a similar manner as 1,2-naphthylstilbene, (Z)-2,2-naphthylstilbene 54Z was prepared in 39% isolated yield. […]

With `COc1ccc(/C=C/c2ccc(-c3ccccc3)cc2)cc1` [52E] the “solubility in THF” value was “partially soluble”.
With `CN(C)c1ccc(/C=C/c2ccc(Br)cc2)cc1` [51E] the “solubility in Et2O, compared with 52E” value (Et2O, trituration solvent, relative to 52E) was “bigger solubility” and the “solubility in THF” value was “partially soluble”.
